Measurements as given in patent US7550469B2, “Heterocyclic amide derivatives and their use as dopamine D3 receptor ligands” (Aventis Pharmaceuticals Inc., priority 2001, dated 2009).
pKi: −log10 of the molar value. Read-outs that look alike come from different tables or passages of the source. Blank lines part the entries; values can stand above or below the molecule they belong to.

Target: T1, cloned human dopamine D3 receptors (Homo sapiens, UniProt P35462)
T1 construct: expressed in transfected cells; membrane homogenate
T1 sequence (P35462 whole entry): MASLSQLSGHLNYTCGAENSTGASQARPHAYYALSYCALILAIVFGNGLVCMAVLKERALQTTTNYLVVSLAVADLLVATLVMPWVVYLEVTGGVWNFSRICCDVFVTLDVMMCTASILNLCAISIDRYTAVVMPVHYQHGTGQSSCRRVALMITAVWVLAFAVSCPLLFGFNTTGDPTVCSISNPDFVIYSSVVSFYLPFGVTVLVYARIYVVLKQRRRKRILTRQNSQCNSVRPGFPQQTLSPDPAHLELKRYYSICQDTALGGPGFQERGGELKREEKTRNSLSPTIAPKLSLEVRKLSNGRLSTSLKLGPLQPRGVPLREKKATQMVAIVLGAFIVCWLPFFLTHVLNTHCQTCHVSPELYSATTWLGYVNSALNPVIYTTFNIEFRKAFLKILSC
Test: [N-Methyl-3H]Spiroperidol binding to cloned human dopamine D3 receptors (Protocol 1)
How it was run: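 Membranes from CHO cells stably expressing cloned human D3 receptor were used for [N-methyl-3H]spiroperidol (60-90 Ci/mmol) binding. Assay buffer was 0.05 M Tris HCl pH 7.7 with 120 mM NaCl, 5 mM KCl, 2 mM CaCl2 and 1 mM MgCl2, optionally 0.1% ascorbic acid; total ligand concentration calculated from added CPM.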

[1] = the 13th table, unit inferred, read-out: D3Ki
[2] = the 21st table, read-out: D3 Ki
[3] = the 14th table, read-out: D3 Ki
[4] = the 16th table, read-out: D3 Ki
[5] = the 22nd table, read-out: D3 Ki
[6] = the 18th table, read-out: D3 Ki
[7] = the 15th table, read-out: D3 Ki
[8] = the 23rd table, read-out: D3 Ki

pKi (read-out: D3K1): 7.29
Structure (SMILES): O=C(NC/C=C/CN1CCN(c2csc3cc(C(F)(F)F)ccc23)CC1)c1ccc(F)cc1 [compound 827719]

pKi [1]: 6.80
Structure (SMILES): O=C(NCCCCCN1CCC(c2noc3ccsc23)CC1)c1ccc(Cl)cc1 [compound 816199]

pKi [1]: 7.21
Structure (SMILES): O=C(NCCCCN1CCCN(c2csc3cc(C(F)(F)F)ccc23)CC1)c1n[nH]c2ccccc12 [S980653]

pKi (the 26th table, read-out: D3 Ki): 6.58
Structure (SMILES): OC(CCN1CCC(c2noc3ccsc23)CC1)CN1CCN(c2ccccc2)CC1 (centres unmarked) [compound 831943]

pKi [2]: 6.60
Structure (SMILES): C[C@@H]1CN(c2csc3cc(C(F)(F)F)ccc23)C[C@H](C)N1CCCCNC(=O)c1ccncc1 [compound 826937]

pKi (Table 2, read-out: D3K1): 6.65
pKi (read-out: D3K1): 6.65
pKi [3]: 6.65
Structure (SMILES): O=C(N[C@@H](CO)CCCN1CCN(c2csc3cc(C(F)(F)F)ccc23)CC1)c1ccc2[nH]ccc2c1 [compound 815676]

pKi (Table 2, read-out: D3K1): 6.85
pKi [4]: 6.85
Structure (SMILES): O=C(NCCCN1CCCN(c2csc3cc(F)ccc23)CC1)c1cccc(Cl)c1 [compound 827135]

pKi [2]: 6.89
Structure (SMILES): C[C@@H]1CN(c2csc3cc(F)ccc23)C[C@H](C)N1CCCCNC(=O)c1ccc(C(C)(C)C)cc1 [compound 826944]

pKi (Table 2, read-out: D3K1): 7.13
pKi [4]: 7.13
Structure (SMILES): O=C(NCCCCN1CCCN(c2csc3cc(F)ccc23)CC1)c1cc2cc(OC(F)(F)F)ccc2o1 [compound 827127]

pKi (read-out: D3K1): 6.70
Structure (SMILES): O=C(NCC1CCC1CN1CCN(c2csc3cc(C(F)(F)F)ccc23)CC1)c1cc2ccccc2s1 (centres unmarked) [compound 826292]

pKi [1]: 6.96
Structure (SMILES): O=C(NCCCCN1CCCN(c2csc3cc(C(F)(F)F)ccc23)CC1)c1cccnc1Cl [S980646]

pKi [2]: 7.40
Structure (SMILES): C[C@@H]1CN(c2csc3cc(C(F)(F)F)ccc23)C[C@H](C)N1CCCCNC(=O)c1ccc2[nH]ccc2c1 [compound 826954]

pKi [5]: 6.76
Structure (SMILES): COc1ccccc1C(=O)NCCCCN1CCN(c2nn(C(=O)c3ccccc3OC)c3ccsc23)CC1 [compound 825145]

pKi [5]: 6.83
Structure (SMILES): CCCCc1ccc(C(=O)NCCCCN2CCN(c3noc4ccsc34)CC2)cc1 [compound 829685]

pKi [2]: 7.19
Structure (SMILES): C[C@@H]1CN(c2csc3cc(F)ccc23)C[C@H](C)N1CCCCNC(=O)c1cccc(Cl)c1 [compound 827047]

pKi [3]: 8.00
Structure (SMILES): Cc1ccccc1C(=O)NCCCCCN1CCN(c2csc3cc(F)ccc23)CC1 [compound 826781]

pKi (the 19th table, read-out: D3 Ki): 6.85
Structure (SMILES): COc1ccc(C(=O)NCc2ccccc2CN2CCN(c3csc4cc(F)ccc34)CC2)cc1OC [compound 822188]

pKi [6]: 7.44
Structure (SMILES): O=C(NCc1sccc1CN1CCN(c2csc3cc(F)ccc23)CC1)c1ccc2ccccc2c1 [compound 826300]

pKi [2]: 6.49
Structure (SMILES): C[C@@H]1CN(c2csc3cc(C(F)(F)F)ccc23)C[C@H](C)N1CCCCNC(=O)c1cccc(C(F)(F)F)c1 [compound 827043]

pKi (read-out: D3K1): 8.21
Structure (SMILES): O=C(NCCCCN1CCN(c2c(Cl)sc3cc(F)ccc23)CC1)c1ccc(Cl)cc1 [compound 815060]

pKi [2]: 6.45
Structure (SMILES): C[C@@H]1CN(c2csc3cc(C(F)(F)F)ccc23)C[C@H](C)N1CCCCNC(=O)c1cccc2ccccc12 [compound 827041]

pKi (read-out: D3K1): 7.30
pKi [3]: 7.30
Structure (SMILES): O=C(NCCCCCN1CCN(c2csc3cc(C(F)(F)F)ccc23)CC1)c1n[nH]c2ccccc12 [compound 826801]

pKi [1]: 7.72
Structure (SMILES): O=C(NCCCCN1CCCN(c2csc3cc(C(F)(F)F)ccc23)CC1)c1cc2ccccc2o1 [S984513]

pKi [1]: 7.40
Structure (SMILES): Cc1ccccc1C(=O)NCCCCN1CCCN(c2csc3cc(C(F)(F)F)ccc23)CC1 [S980639]

pKi (read-out: D3K1): 8.24
Structure (SMILES): O=C(NCCCCN1CCN(c2csc3cc(C(F)(F)F)ccc23)CC1)c1cccs1 [compound 811708]

pKi (Table 2, read-out: D3K1): 6.58
pKi (read-out: D3K1): 6.58
pKi [3]: 6.58
Structure (SMILES): CSc1ncccc1C(=O)N[C@@H](CO)CCCN1CCN(c2csc3cc(C(F)(F)F)ccc23)CC1 [compound 815681]

pKi [6]: 7.13
Structure (SMILES): O=C(NCc1sccc1CN1CCN(c2csc3cc(F)ccc23)CC1)c1ccc(C(F)(F)F)cc1 [compound 826311]

Structure (SMILES): COc1ccccc1C(=O)NCCCCN1C2CCC1CC(c1noc3ccccc13)C2 (centres unmarked) [compound 816525]
pKi [7]: 6.83

pKi [6]: 7.95
Structure (SMILES): O=C(NCc1sccc1CN1CCN(c2csc3cc(F)ccc23)CC1)c1ccc(-c2ccccn2)s1 [818320G]

pKi (read-out: D3K1): 6.92
Structure (SMILES): O=C(NC/C=C/CN1CCN(c2csc3cc(C(F)(F)F)ccc23)CC1)c1cccc(C(F)(F)F)c1 [compound 827724]

pKi [2]: 6.64
Structure (SMILES): C[C@@H]1CN(c2csc3cc(C(F)(F)F)ccc23)C[C@H](C)N1CCCCNC(=O)c1ccc(C(C)(C)C)cc1 [compound 826934]

pKi [8]: 7.32
Structure (SMILES): FC(F)(F)c1cccc2c(C3CCN(C[C@@H]4C[C@H]4CNCC45CC6CC(CC(C6)C4)C5)CC3)noc12 [compound 832783]

pKi (Table 2, read-out: D3K1): 6.50
Structure (SMILES): O=C(NCC(CO)CCN1CCN(c2csc3cc(C(F)(F)F)ccc23)CC1)c1c(F)cc(F)cc1F (centres unmarked) [818923ES]

pKi [1]: 8.98
Structure (SMILES): COc1ccc2[nH]c(C(=O)NCCCCN3CCCN(c4csc5cc(F)ccc45)CC3)cc2c1 [S977820]

pKi [5]: 7.30
Structure (SMILES): O=C(NCCCCN1CCN(c2noc3ccsc23)CC1)c1cccs1 [compound 829687]

pKi [1]: 6.65
Structure (SMILES): O=C(NCCCCCN1CCC(c2noc3ccsc23)CC1)c1ccccc1C(F)(F)F [compound 816211]

pKi (read-out: D3K1): 7.23
Structure (SMILES): COc1cccc(C(=O)NC/C=C/CN2CCN(c3csc4cc(C(F)(F)F)ccc34)CC2)c1 [compound 827722]

pKi [6]: 7.80
Structure (SMILES): COc1ccccc1C(=O)NCc1sccc1CN1CCN(c2csc3cc(F)ccc23)CC1 [compound 826302]

Structure (SMILES): CCCCOc1ccc(C(=O)NCCCCN2C3CCC2CC(c2noc4ccccc24)C3)cc1 (centres unmarked) [compound 816529]
pKi [7]: 7.37

pKi (Table 2, read-out: D3K1): 7.81
pKi [4]: 7.81
Structure (SMILES): Cc1ccc2cc(C(=O)NCCCCN3CCCN(c4csc5cc(F)ccc45)CC3)oc2c1 [compound 827130]

pKi (read-out: D3K1): 7.82
pKi [3]: 7.82
Structure (SMILES): O=C(NCCCCCCN1CCN(c2csc3cc(C(F)(F)F)ccc23)CC1)c1n[nH]c2ccccc12 [compound 826743]

pKi [1]: 8.92
Structure (SMILES): Cc1ccc(Sc2ncccc2C(=O)NCCCCN2CCCN(c3csc4cc(F)ccc34)CC2)cc1 [S981835]

Structure (SMILES): COc1ccc(C(=O)NCCCCN2C3CCC2CC(c2noc4ccccc24)C3)cc1 (centres unmarked) [compound 816534]
pKi [7]: 6.83

pKi (Table 2, read-out: D3K1): 6.06
pKi (read-out: D3K1): 6.06
pKi [3]: 6.06
Structure (SMILES): O=C(N[C@H](CO)CCCN1CCN(c2csc3cc(C(F)(F)F)ccc23)CC1)c1ccco1 [compound 815696]

pKi (read-out: D3K1): 7.49
Structure (SMILES): COc1cc(OC)cc(C(=O)NCCCCN2CCN(c3csc4cc(C(F)(F)F)ccc34)CC2)c1 [compound 815543]

pKi [1]: 7.77
Structure (SMILES): COc1ccc2cc(C(=O)NCCCCN3CCCN(c4csc5cc(C(F)(F)F)ccc45)CC3)[nH]c2c1 [S980647]

pKi (read-out: D3K1): 7.36
pKi [3]: 7.36
Structure (SMILES): O=C(NCCCCCCN1CCN(c2csc3cc(C(F)(F)F)ccc23)CC1)c1c[nH]c2ccccc12 [compound 826740]

pKi [1]: 7.55
Structure (SMILES): O=C(NCCCCN1CCCN(c2csc3cc(C(F)(F)F)ccc23)CC1)c1ccsc1 [S980656]

pKi (read-out: D3K1): 8.31
pKi [3]: 8.31
Structure (SMILES): COc1cc(OC)cc(C(=O)NCCCCCCN2CCN(c3csc4cc(C(F)(F)F)ccc34)CC2)c1 [compound 826748]

Structure (SMILES): COc1ccc(C(=O)NCCCCN2C3CCC2CC(c2noc4cc(F)ccc24)C3)cc1OC (centres unmarked) [compound 816332]
pKi [7]: 6.23

pKi [2]: 6.97
Structure (SMILES): C[C@@H]1CN(c2csc3cc(C(F)(F)F)ccc23)C[C@H](C)N1CCCCNC(=O)c1cccs1 [compound 827037]

pKi [8]: 7.47
Structure (SMILES): C[C@H]1CC[C@H](NC[C@@H]2C[C@H]2CN2CCC(c3noc4c(C(F)(F)F)cccc34)CC2)CC1 [compound 832275]

pKi (the 24th table, read-out: D3 Ki): 6.95
Structure (SMILES): CC(C)S(=O)(=O)NCC1CC1CN1CCC(c2noc3ccsc23)CC1 (centres unmarked) [compound 831366]

pKi [6]: 7.32
Structure (SMILES): O=C(NCc1sccc1CN1CCN(c2csc3cc(F)ccc23)CC1)c1csnn1 [compound 826317]

pKi (read-out: D3K1): 7.14
Structure (SMILES): CC1(C)C(CNC(=O)Cc2ccccc2)C1CN1CCN(c2csc3cc(C(F)(F)F)ccc23)CC1 (centres unmarked) [compound 826281]

pKi [1]: 7.77
Structure (SMILES): O=C(NCCCCN1CCCN(c2csc3cc(C(F)(F)F)ccc23)CC1)c1ccc2cc[nH]c2c1 [S980652]

pKi [8]: 9.08
Structure (SMILES): COc1ccccc1N1CCN(C[C@@H]2C[C@H]2CN2CCN(c3csc4cc(C(F)(F)F)ccc34)CC2)CC1 [compound 833379]

pKi [1]: 7.55
Structure (SMILES): O=C(NCCCCCN1CCCN(c2csc3cc(F)ccc23)CC1)c1sccc1-n1cccc1 [S984499]

pKi [6]: 7.08
Structure (SMILES): O=C(NCc1sccc1CN1CCN(c2csc3cc(F)ccc23)CC1)c1ccc(F)cc1 [compound 826304]

pKi [8]: 8.58
Structure (SMILES): FC(F)(F)c1ccc2c(N3CCN(C[C@@H]4C[C@H]4CNCCCn4ccnc4)CC3)csc2c1 [compound 833257, (3-imidazol-1-yl-propyl)-{(1R,2R)-2-[4-(6-trifluoromethyl-benzo[b]thiophen-3-yl)-piperazin-1-ylmethyl]-cyclopropylmethyl}-amine]

pKi [1]: 9.01
Structure (SMILES): CC1=C(C(=O)NCCCCN2CCCN(c3csc4cc(F)ccc34)CC2)Cc2ccccc21 [S977827]

pKi [1]: 7.50
Structure (SMILES): O=C(NCCCCCN1CCCN(c2csc3cc(F)ccc23)CC1)c1cccc(Cl)c1 [S984486]

pKi [1]: 7.50
Structure (SMILES): O=C(NCCCCCN1CCCN(c2csc3cc(F)ccc23)CC1)c1cccs1 [S984485]

pKi [3]: 8.34
Structure (SMILES): O=C(NCCCCCN1CCN(c2csc3cc(F)ccc23)CC1)c1cccc(F)c1 [compound 826782]

pKi (Table 2, read-out: D3K1): 6.62
pKi (read-out: D3K1): 6.62
pKi [3]: 6.62
Structure (SMILES): CC(=O)Nc1ccc(C(=O)N[C@H](CO)CCCN2CCN(c3csc4cc(C(F)(F)F)ccc34)CC2)cc1 [compound 815691]

pKi [1]: 7.69
Structure (SMILES): O=C(NCCCCN1CCCN(c2csc3cc(C(F)(F)F)ccc23)CC1)c1ccc(-c2ccccc2F)cc1 [S908665]

pKi [1]: 7.89
Structure (SMILES): O=C(Cc1ccc(Cl)cc1)NCCCCN1CCCN(c2csc3cc(F)ccc23)CC1 [S982509]

pKi [6]: 6.69
Structure (SMILES): O=C(NCc1sccc1CN1CCN(c2csc3cc(F)ccc23)CC1)c1cnc2ccccc2n1 [compound 826310]
